Data set [1] can be described thus: Safety of tumescent drug delivery: subcutaneous infiltration of tumescent acyclovir and gentamicin. The format is in vivo, human.
The test system of the next data set is Herpes zoster. Conditions: without repeat dosing.
The test system of data set [2] is Staphyloccus aureus (MRSA) ATCC 33592. Briefly: Minimum Inhibitory Concentration (MIC) vs MRSA. The note with it: Staphylococcus aureus.
Data set [3] in a line: Adverse effects / tissue toxicity after subcutaneous tumescent infiltration (TAD trial). The source says: At the time when each sample of TISF was obtained, patients were examined and questioned about signs and symptoms of subcutaneous tissue toxicity including unusual soreness, tenderness, discoloration, swelling at sites of subcutaneous tumescent infiltration. […] One week after TAD patients were questioned by telephone about any signs and symptoms of subcutaneous tissue toxicity at the sites of TAD.

A further data set in a line: clinical. Conditions: human, in vivo.
The conditions of data set [4]: 28 mg/kg of tumescent lidocaine.
The conditions of data set [5]: IV Lidocaine; neuropathic pain; cited from earlier work.
The conditions of data set [6]: routine injection; cited from earlier work.
Another data set relates to platelet aggregation. Conditions: cited from earlier work.
The next data set concerns platelet function. Briefly: Bleeding time and bleeding area before and after tumescent lidocaine exposure. The class given is in vivo, human. On the procedure:
The skin of the left and right thigh of a subject is cleaned and allowed to dry. […] Simultaneous 4 mm deep puncture wounds are made to the same area of the left and right thighs with disposable lancets. The puncture sites are blotted with filter paper every 30 seconds, until bleeding stops and the bleeding time for each thigh is recorded. The bleeding times of the left and right thigh are compared to determine if administration of TLAnti increases bleeding time. Normal bleeding time measured by the Duke method is 1 to 3 minutes.
In a preliminary experiment, bleeding time and bleeding area were measured in a patient before and after tumescent lidocaine exposure. […] In contrast, there was a 40% increase in Average Bleeding Area (BA). Bleeding Area (BA) was a more sensitive and a more specific test for platelet function compared to Bleeding Time (BT). […] In other words, TAD may reduce the risk of both post-operative surgical site infection and post-operative thromboembolism.

In data set [7] the test system is Staphyloccus aureus (MRSA) ATCC 33592. Briefly: Minimum Bactericidal Concentration (MBC) vs MRSA. The class given is cell-based, Staphylococcus aureus. The source says:
Determinations of MBC followed the method described in “Report on the Working Party on Antibiotic Sensitivity Testing of the British Society of Antimicrobial Chemotherapy: A Guide to Sensitivity Testing.”

The conditions of data set [8]: IVAD 500 mg; abdominal wall surgery; cited from earlier work.
For data set [9] the following is noted: human, in vivo.
Data set [10] in a line: Phase I pharmacokinetic clinical trial: TAD vs IVAD of cefazolin and metronidazole (TISF and serum). Conditions: for AUC / Cmax: human, in vivo.
For data set [11] the following is noted: 8 of 10 obese subjects and 3 of 10 normal controls; cited from earlier work.
Where [12] appears, read: dilute drug after subcutaneous tumescent infiltration.
[13] abbreviates: after vs before tumescent lidocaine exposure.
The mark [14] stands for this setting: post-op tumescent lidocaine exposure, single tests T3, T4, Patient 1.
Where [15] appears, read: 20 ml subcutaneous TI, 6 of 6 subjects, 6 days.

≈ marks a conversion by molar mass, not a printed value. Where “and” joins values, the source holds several entries; their conditions need not be identical. Identical values can stand only once. Like-named read-outs stand apart in the source and are kept apart here.

On to `Nc1nc2c(ncn2COCCO)c(=O)[nH]1` [Acyclovir], for which, in data set [1] (in vivo, sc), the “clinically significant adverse effects” value was “without any clinically significant adverse effects”, the ecchymosis result is recorded as “no ecchymosis” and the “local tenderness upon palpation” value was “no local tenderness”. For the same compound, in the data set on Herpes zoster, the “duration of elimination of acute zoster pain” value was “at least 12 hours”.
As a reminder, the MIC is the lowest concentration found to suppress growth. Broadly, the Tmax is the time from dosing to the highest level. Consider `Cc1nnc(SCC2=C(C(=O)O)N3C(=O)[C@@H](NC(=O)Cn4cnnn4)[C@H]3SC2)s1` [Cefazolin], for which the minimum inhibitory concentration (MIC) in data set [2] fell in the range of 125 to 250 µg/mL (≈ 0.275 to 0.55 mM). Also, in [3] (in vivo, sc), the “adverse local or systemic effects” value was “no adverse local or systemic effects”. The Tmax in “clinical” fell in the range of 8 to 12 h.
As usually defined, the MBC is the smallest concentration meeting the test's criterion for killing. Turning to `CCN(CC)CC(=O)Nc1c(C)cccc1C` [Lidocaine], the “duration of therapeutic serum lidocaine concentrations” value in data set [4] is not below 12 h. The figures for the MIC in [2] and in data set [2] (read-out: MIC end point) were approximately 5000 µg/mL (≈ 21.3 mM) and 5000 µg/mL (≈ 21.3 mM), respectively. Further, the “mean serum lidocaine concentration at complete analgesia” value in [5] was 3.79 ± 1.00 µg/mL. The “adverse local or systemic effects” value in data set [3] (setting [12]) is reported as “no adverse local or systemic effects”. Further, the “duration of routine local anesthesia” value in [6] is approximately 2 h. Further, the “concentrations that consistently inhibit in-vitro platelet aggregation” value in the data set on platelet aggregation (aggregation induced by ADP, epinephrine and collagen) was not below 0.5 mg/mL. Moreover, in the data set with platelet aggregation (safe systemic concentrations), the “systemic concentrations with no effect on platelet aggregation” value was not above 6 micrograms/ml. The “Average Bleeding Area (BA)” value in the data set on platelet function (after tumescent lidocaine exposure (Control BA = 541)) is on record as “Lidocaine BA = 759”. The “Average Bleeding Time (BT)” value with platelet function (after tumescent lidocaine exposure (Control BT = 6)) is recorded as “Lidocaine BT = 5.75”. The “change in Average Bleeding Time (BT)” value with platelet function (setting [13]) is recorded as “essentially no change”. Also, the “increase in Average Bleeding Area (BA)” value with platelet function (setting [13]) is given as 40%. In the data set with platelet function (setting [14]), the “Bleeding Area BA” value is 791.81 and 726.03. Also, in the data set with platelet function (setting [14]), the “Bleeding Time BT × 2” value is 10 and 13. In addition, the “MRSA survival at test concentration (MBC test)” value in data set [7] (Day 1, 1,000 mg/L, MRSA Inoculum 4.7 × 10^5 CFU/ml) is reported as “+”; in data set [7] (Day 2, 1,000 mg/L, MRSA Inoculum 4.4 × 10^5 CFU/ml) it was “+”; in data set [7] (Day 2, 5,000 mg/L, MRSA Inoculum 4.4 × 10^5 CFU/ml), “+”; in [7] (Day 2, 10,000 mg/L, MRSA Inoculum 4.4 × 10^5 CFU/ml), 0. Also, in data set [7] (Staphylococcus aureus, 48 h, read-out: MBC end point), the MBC is 10000 µg/mL (≈ 42.7 mM).
One may read the AUC as the area under the concentration-time curve, a measure of exposure. Broadly, the Cmax is the peak of the concentration-time curve. As for `Cc1ncc([N+](=O)[O-])n1CCO` [Metronidazole], the “concentration in subcutaneous fat” value in data set [8] was 600 to 1700 ng/mL. In data set [9], the “mean Tmax (time of Cmax in serum)” value stood at 11. Further, in data set [3] (in vivo, sc), the “adverse local or systemic effects” value is “no adverse local or systemic effects”. Besides, the Tmax in the data set “clinical” lay in the range of 10 to 12 h. For the same compound, the “AUC∞ in TISF after TAD, times greater than in serum after IVAD” value in data set [10] (500 mg TAD vs 500 mg IVAD) is listed as 8.1 times. Moreover, the AUC in [10] (500 mg, Table 15B, Abdomen, TISF, TAD, 413 mg/L, with cefazolin) is 1030 µg·h/mL; in [10] (500 mg, Table 15B, Abdomen, serum, IVAD, with cefazolin) it was 127 µg·h/mL; in [10] (500 mg, Table 15B, Abdomen, serum, TAD, 413 mg/L, with cefazolin) it was 81 µg·h/mL; in data set [10] (600 mg, Table 16B, Abdomen, serum, TAD, 172 mg/L, TAD dose 600 mg) it was 81 µg·h/mL; in data set [10] (Table 16B, Abdomen, TISF, TAD + IVAD, 200 mg/L, TAD dose 400 mg, IVAD dose 200 mg), 1130 µg·h/mL; in data set [10] (Table 16B, Abdomen, serum, TAD + IVAD, 200 mg/L, TAD dose 400 mg, IVAD dose 200 mg), 117 µg·h/mL. Moreover, the Cmax stood at 370000 ng/mL in data set [10] (500 mg, Cmax in tumescent interstitial fluid, TAD solution containing 500 mg of metronidazole); 160000 ng/mL in [10] (500 mg, Cmax, Table 15B, Abdomen, TISF, TAD, 413 mg/L, with cefazolin); 14000 ng/mL in data set [10] (500 mg, Cmax, Table 15B, Abdomen, serum, IVAD, with cefazolin); 4800 ng/mL in [10] (500 mg, Cmax, Table 15B, Abdomen, serum, TAD, 413 mg/L, with cefazolin); 160000 ng/mL in [10] (600 mg, Cmax, Table 16B, Abdomen, TISF, TAD, 172 mg/L, TAD dose 600 mg); 14000 ng/mL in data set [10] (600 mg, Cmax, Table 16B, Abdomen, serum, IVAD dose 600 mg). Also, the Cmax was 4800 ng/mL in data set [10] (600 mg, Cmax, Table 16B, Abdomen, serum, TAD, 172 mg/L, TAD dose 600 mg); 150000 ng/mL in data set [10] (Cmax, Table 16B, Abdomen, TISF, TAD + IVAD, 200 mg/L, TAD dose 400 mg, IVAD dose 200 mg); 5900 ng/mL in [10] (Cmax, Table 16B, Abdomen, serum, TAD + IVAD, 200 mg/L, TAD dose 400 mg, IVAD dose 200 mg).
As for `CO[C@@]1(NC(=O)Cc2cccs2)C(=O)N2C(C(=O)O)=C(COC(N)=O)CS[C@@H]21` [cefoxitin], in [11], the “subcutaneous bioavailability (AUC) of free drug after IVAD, times less than serum bioavailability” value is given as 10 times. Also, the “subcutaneous bioavailability by IVAD, times less than by TAD” value in data set [10] (10×16, for a significant proportion of patients) is on record as “approximately 160 times”.
On to `CNC[C@H](O)c1ccc(O)c(O)c1` [epinephrine], for which the “adverse local or systemic effects” value in data set [3] (setting [12]) was “no adverse local or systemic effects”.
As for Gentamicin, in [1] (setting [15]), the ecchymosis entry was “no ecchymosis” and the “local tenderness upon palpation” value is reported as “no local tenderness”. In data set [1] (20 ml subcutaneous TI, acyclovir 1 gm in 1130 ml, gentamicin 80 mg in 1110 ml tumescent lidocaine solution, 6 of 6 subjects), the stinging upon injection entry is “no stinging”. For the same compound, the “clinically significant adverse effects” value in [1] (injected subcutaneously in a dilute tumescent solution) is listed as “without any clinically significant adverse effects”.

These data come from US12303591B2, “Tumescent infiltration drug delivery of high subcutaneous drug concentrations with prolonged local and systemic effects and minimal local or systemic toxicity” (priority 2015, dated 2025).
